# Laboratory results taken from US6998258B1, “L-pantolactone-hydrolase and a method for producing D-pantolactone” (BASF Aktiengesellschaft, priority 1999, dated 2006).
# Read-outs that look alike come from different tables or passages of the source. Square brackets hold non-standard residues; d marks the D form. Peptide text beside a SMILES is read from it. * marks the point of attachment. Sta = CC(C)C[C@H](N)[C@@H](O)CC(=O)O; Isovaleryl = CC(C)CC(=O)*
# Columns and labels:
# [1] = test system: L-pantolactone hydrolase from Lu681; assay: Substrate specificity of purified L-pantolactone hydrolase from Lu681 (HPLC); assay type: biochemical, Burkholderia caryophylli
# [2] = test system: L-pantolactone hydrolase from Lu5351; assay: Substrate specificity of purified L-pantolactone hydrolase from Lu5351 (HPLC); assay type: biochemical, Agrobacterium radiobacter
# [3] = test system: L-pantolactone hydrolase from Burkholderia caryophylli Lu681; assay: Inhibition and activation by added substances, standard assay, Lu681 enzyme; assay type: biochemical
# [4] = test system: L-pantolactone hydrolase from Agrobacterium radiobacter Lu5351; assay: Inhibition and activation by added substances, standard assay, Lu5351 enzyme; assay type: biochemical
# [5] = test system: L-pantolactone hydrolase from Lu681; assay: Optical lipase assay with resorufin ester in microtiter plate; assay type: biochemical, Burkholderia caryophylli; conditions: Lu681 enzyme, 60 to 482 U/l
# [6] = test system: recombinant 681 lactonase; assay type: biochemical, Burkholderia caryophylli
# D-pantolactone hydrolase = conditions: cited from earlier work
# [7] = added substance 1 mM, 150 mM L-pantolactone, 1 h, 30° C., vs no addition
# [8] = substrate 2.5 mN, 0.1 U/ml enzyme, 150 mM Pipes pH 6.8
# [9] = substrate 150 mN, 0.1 U/ml enzyme, 150 mM Pipes pH 6.8
# [10] = substrate 10 mN, 0.1 U/ml enzyme, 150 mM Pipes pH 6.8
# [11] = substrate 50 mN, 0.1 U/ml enzyme, 150 mM Pipes pH 6.8
# [12] = added substance 0.1%, vs no addition
compound,measurement,setting,value
O=C1OC(C(O)CO)C(O)C1O [D-Galactono-γ-lactone],Activity,[1]; pH 6.8,+ (key: ++: >50 U/l; +: >5 U/l; (+): >0.5 U/l; −: <0.5 U/l)
same,Activity,[2]; pH 6.8,++ (key: ++: >50 U/l; +: >5 U/l; (+): >0.5 U/l; −: <0.5 U/l)
OO [H2O2],Relative Activity,[3],95%
O=C1CCc2ccccc2O1 [Dihydrocumarin],Activity,[2]; pH 6.8,+ (key: ++: >50 U/l; +: >5 U/l; (+): >0.5 U/l; −: <0.5 U/l)
CC(C)CC(=O)N[C@H](C(=O)N[C@H](C(=O)N[C@@H](CC(C)C)[C@@H](O)CC(=O)N[C@@H](C)C(=O)N[C@@H](CC(C)C)[C@@H](O)CC(=O)O)C(C)C)C(C)C [Pepstatin] (Isovaleryl-VV[Sta]A[Sta]-OH),Relative Activity,[3]; [7],117%
O=C1Cc2cc(O)ccc2O1 [5-Hydroxy-2-coumaranone],Activity,[1]; [8],+ (+: >5 U/l)
CC(C)O [Isopropanol],Relative Activity,"[3]; added substance 10%, vs no addition",93%
Cl.N [NH4Cl],Relative Activity,[3],100%
O=C1OC(C(O)CO)C(O)C1O [L-(+)-Gulono-γ-lactone],Activity,[1]; [9],+ (+: >5 U/l)
same,Activity,[2]; [9],++ (++: >50 U/l)
O=S(=O)(F)Cc1ccccc1 [PMSF],Relative Activity,[3],113%
[Cl][Ni][Cl] [NiCl2],Relative Activity,[3],96%
CCOC(=O)[C@@H](C)O [Ethyl D(+)-lactate],Activity,[1]; [9],+ (+: >5 U/l)
same,Activity,[2]; [9],+ (+: >5 U/l)
[Cl][Mn][Cl] [MnCl2],Relative Activity,[3],100%
CC(=O)Oc1cccc2ccccc12 [α-Naphthyl acetate],Activity,[1]; [8],(+) ((+): >0.5 U/l)
same,Activity,[2]; [8],(+) ((+): >0.5 U/l)
[Cl-].[Cl-].[Mg+2] [MgCl2],Relative Activity,[3],99%
same,Relative Activity,[4],114%
Triton,Relative Activity,[3],104%
"CCCCCCCCCCCCOS(=O)(=O)[O-].[Na+] [SDS, Sodium dodecyl sulfate]",Relative Activity,"[3]; added substance 1%, vs no addition",102%
same,Relative Activity,"[4]; added substance 1%, vs no addition, sulfate",74%
CO [MeOH],Relative Activity,[3],100%
"CCCCCCCCCCCCOCC(COC(=O)CCCC(=O)Oc1ccc2nc3ccc(=O)cc-3oc2c1)OCCCCCCCCCCCC (racemic) [1,2-O-Dilauryl-rac-glycero-3-glutaric acid resorufin ester]",lipase activity as share of the L-pantolactone hydrolase activity,[5],about 0.05%
same,Activity,[1],(+) (key: ++: >50 U/l; +: >5 U/l; (+): >0.5 U/l; −: <0.5 U/l)
same,Activity,[2],(+) (key: ++: >50 U/l; +: >5 U/l; (+): >0.5 U/l; −: <0.5 U/l)
[Cl-].[K+] [KCl],Relative Activity,[3],99%
[Cl][Hg][Cl] [HgCl2],Relative Activity,[3],133%
same,Relative Activity,[4],170%
CC1(C)COC(=O)[C@H]1O [S-Pantolactone],Activity,[1]; pH 6.8,++ (key: ++: >50 U/l; +: >5 U/l; (+): >0.5 U/l; −: <0.5 U/l)
same,Activity,[2]; pH 6.8,++ (key: ++: >50 U/l; +: >5 U/l; (+): >0.5 U/l; −: <0.5 U/l)
CC1(C)COC(=O)C1O [D-Pantolactone],Activity,[1]; [9],− (−: <0.5 U/l)
same,Activity,[2]; [9],(+) ((+): >0.5 U/l)
same,type of inhibition,[6],competitive inhibition
O=C1Nc2ccccc2C1=O [Isatin],Activity,[1]; [10],+ (+: >5 U/l)
same,Activity,[2]; [10],(+) ((+): >0.5 U/l)
"O=S(=O)(O)c1cc[c]([Hg][Cl])cc1 [pCMBS, p-Chloromercuribiphenylsulfonic [sic] acid]",Relative Activity,[3],108%
same,Relative Activity,[4],112%
[Cl][Fe][Cl] [FeCl2],Relative Activity,[3],104%
same,Relative Activity,[4],108%
"O[C@H](CS)[C@H](O)CS (racemic) [DTT, Dithiothreitol]",Relative Activity,[3]; [7],99%
same,Relative Activity,[4]; [7],106%
CCCCC1CCCC(=O)O1 (stereo not shown) [δ-Nonalactone],Activity,[1]; pH 6.8,+ (key: ++: >50 U/l; +: >5 U/l; (+): >0.5 U/l; −: <0.5 U/l)
same,Activity,[2]; pH 6.8,++ (key: ++: >50 U/l; +: >5 U/l; (+): >0.5 U/l; −: <0.5 U/l)
[Ca+2].[Cl-].[Cl-] [CaCl2],Relative Activity,[3],101%
same,Relative Activity,[4],105%
CCOC(=O)C(C)O (stereo not drawn) [Ethyl (L)(−)-lactate],Activity,[1]; [9],++ (++: >50 U/l)
same,Activity,[2]; [9],++ (++: >50 U/l)
CoCl2,Relative Activity,[3],97%
c1cnc2c(c1)ccc1cccnc12 [o-Phenanthroline],Relative Activity,[3],95%
O=C1CCCO1 [γ-Butyrolactone],Activity,[1]; pH 6.8,+ (key: ++: >50 U/l; +: >5 U/l; (+): >0.5 U/l; −: <0.5 U/l)
same,Activity,[2]; pH 6.8,++ (key: ++: >50 U/l; +: >5 U/l; (+): >0.5 U/l; −: <0.5 U/l)
[Cl-].[Cl-].[Zn+2] [ZnCl2],Relative Activity,[3],113%
same,Relative Activity,[4],99%
O=C(O)CC(O)(CC(=O)O)C(=O)O [Citric acid],Relative Activity,"[3]; added substance 30 mM, pH 6.4, vs no addition",97%
[Cd+2] [Cd^2+],inhibition of the enzyme,D-pantolactone hydrolase,inhibited
"O=C(O)CN(CCN(CC(=O)O)CC(=O)O)CC(=O)O [EDTA, Ethylenediaminetetraacetic acid]",Relative Activity,[3]; [7],97%
same,inhibition of the enzyme,"D-pantolactone hydrolase; U.S. Pat. No. 5,372,940",inhibited
same,Relative Activity,[4]; [7],97%
O=C1OC(C(O)CO)C(O)C1O [D-(−)-Gulono-γ-lactone],Activity,[2]; pH 6.8,++ (key: ++: >50 U/l; +: >5 U/l; (+): >0.5 U/l; −: <0.5 U/l)
O=C1O[C@H]([C@@H](O)CO)[C@@H](O)[C@@H]1O [L-Galactono-γ-lactone],Activity,[1]; pH 6.8,++ (key: ++: >50 U/l; +: >5 U/l; (+): >0.5 U/l; −: <0.5 U/l)
same,Activity,[2]; pH 6.8,++ (key: ++: >50 U/l; +: >5 U/l; (+): >0.5 U/l; −: <0.5 U/l)
[Cu+2] [Cu^2+],inhibition of the enzyme,D-pantolactone hydrolase,inhibited
O=C1CCCCO1 [δ-Valerolactone],Activity,[1]; [11],+ (+: >5 U/l)
same,Activity,[2]; [11],++ (++: >50 U/l)
O=C1CCCCCO1 [ε-Caprolactone],Activity,[1]; pH 6.8,++ (key: ++: >50 U/l; +: >5 U/l; (+): >0.5 U/l; −: <0.5 U/l)
same,Activity,[2]; pH 6.8,++ (key: ++: >50 U/l; +: >5 U/l; (+): >0.5 U/l; −: <0.5 U/l)
"C[C@H](CCC(=O)NCCC[N+](C)(C)CCCS(=O)(=O)[O-])[C@H]1CC[C@H]2[C@@H]3[C@H](O)C[C@@H]4C[C@H](O)CC[C@]4(C)[C@H]3C[C@H](O)[C@]12C [CHAPS, ([3-Cholamidopropyl]-dimethylammonio)-1-propane-sulfonate]",Relative Activity,[3]; [12],104%
same,Relative Activity,[4]; [12],100%
[Hg+2] [Hg^2+],inhibition of the enzyme,D-pantolactone hydrolase,inhibited
CC1CCC(=O)O1 (stereo not shown) [γ-Valerolactone],Activity,[1]; pH 6.8,+ (key: ++: >50 U/l; +: >5 U/l; (+): >0.5 U/l; −: <0.5 U/l)
same,Activity,[2]; pH 6.8,++ (key: ++: >50 U/l; +: >5 U/l; (+): >0.5 U/l; −: <0.5 U/l)
CC#N [Acetonitrile],Relative Activity,[3],119%
